Here are results for 16 compounds from patent US9073855B2, “BCL-2 selective apoptosis-inducing agents for the treatment of cancer and immune diseases” (AbbVie Inc., priority 2008, dated 2015).

One test has as its target GST-Bcl-XL (Homo sapiens, UniProt Q07817). Nature of the test: TR-FRET binding assay, GST-Bcl-XL with F-Bak peptide probe. The conditions noted are these: TR-FRET Binding Affinity. Summed up: (§1)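 Compounds were serially diluted in DMSO from a 50 μM starting solution (2× the starting concentration; 10% DMSO). Plates were incubated for 3 h at room temperature, and TR-FRET was read with 340/35 nm excitation and emission at 520/525 nm (F-Bak) and 495/510 nm (Tb antibody). Ki values were calculated using Wang's competitive-binding equation.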

The target in the next test is GST-Bcl-2 (Homo sapiens, UniProt P10415). Nature of the test: TR-FRET binding assay, GST-Bcl-2 with F-Bak peptide probe. To be noted: for Ki: TR-FRET Binding Affinity; for Binding selectivity ratio (Bcl-XL Ki/Bcl-2 Ki): TR-FRET, Bcl-XL Ki divided by Bcl-2 Ki. In a few lines:
as §1

GST-Bcl-2, sequence (P10415 whole entry): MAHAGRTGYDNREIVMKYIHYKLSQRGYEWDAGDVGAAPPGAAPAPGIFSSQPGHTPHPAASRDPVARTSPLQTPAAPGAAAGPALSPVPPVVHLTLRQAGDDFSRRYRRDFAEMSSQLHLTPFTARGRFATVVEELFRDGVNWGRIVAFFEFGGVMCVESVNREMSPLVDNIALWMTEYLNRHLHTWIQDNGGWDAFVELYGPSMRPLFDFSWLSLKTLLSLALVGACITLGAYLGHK
GST-Bcl-XL, sequence (Q07817 whole entry): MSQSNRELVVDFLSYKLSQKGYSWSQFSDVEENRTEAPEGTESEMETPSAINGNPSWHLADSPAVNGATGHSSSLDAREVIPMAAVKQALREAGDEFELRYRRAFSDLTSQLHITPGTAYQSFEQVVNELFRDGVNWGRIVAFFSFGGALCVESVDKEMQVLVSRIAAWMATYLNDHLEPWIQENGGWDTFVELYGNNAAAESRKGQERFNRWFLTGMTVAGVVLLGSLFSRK

With `CC1(C)CCC(CN2CCN(c3ccc(C(=O)NS(=O)(=O)c4ccc(NCC5COCCO5)c([N+](=O)[O-])c4)c(Oc4cccc5[nH]cnc45)c3)CC2)=C(c2ccc(Cl)cc2)C1` (stereo not drawn) [Example 450, 2-(1H-benzimidazol-4-yloxy)-4-(4-{[2-(4-chlorophenyl)-4,4-dimethylcyclohex-1-en-1-yl]methyl}piperazin-1-yl)-N-({4-[(1,4-dioxan-2-ylmethyl)amino]-3-nitrophenyl}sulfonyl)benzamide], the figures for the inhibition constant (Ki) at GST-Bcl-XL and on GST-Bcl-2 were 32.1 nM and 0.299 nM, respectively. Moreover, the “Binding selectivity ratio (Bcl-XL Ki/Bcl-2 Ki)” value (shortened to “Binding selectivity ratio”) at GST-Bcl-2 is reported as 107.3.
On GST-Bcl-XL, `CC1(C)CCC(CN2CCN(c3ccc(C(=O)NS(=O)(=O)c4ccc(NC5CCN(C6CC6)CC5)c([N+](=O)[O-])c4)c(Oc4cccc5[nH]cnc45)c3)CC2)=C(c2ccc(Cl)cc2)C1` [Example 451, 2-(1H-benzimidazol-4-yloxy)-4-(4-{[2-(4-chlorophenyl)-4,4-dimethylcyclohex-1-en-1-yl]methyl}piperazin-1-yl)-N-({4-[(1-cyclopropylpiperidin-4-yl)amino]-3-nitrophenyl}sulfonyl)benzamide] yielded an inhibition constant Ki of 3.6 nM. Besides, on GST-Bcl-2, the Ki is < 0.01 nM and the “Binding selectivity ratio” value came to 359.9.
With `CC1(C)CCC(CN2CCN(c3ccc(C(=O)NS(=O)(=O)c4ccc(N[C@H]5CC[C@H](N6CCOCC6)CC5)c([N+](=O)[O-])c4)c(Oc4cccc5[nH]cnc45)c3)CC2)=C(c2ccc(Cl)cc2)C1` [Example 452, Trans-2-(1H-benzimidazol-4-yloxy)-4-(4-{[2-(4-chlorophenyl)-4,4-dimethylcyclohex-1-en-1-yl]methyl}piperazin-1-yl)-N-({4-[(4-morpholin-4-ylcyclohexyl)amino]-3-nitrophenyl}sulfonyl)benzamide], the values for the Ki at GST-Bcl-XL and on GST-Bcl-2 were 6 nM and < 0.01 nM, respectively. The “Binding selectivity ratio” value at GST-Bcl-2 came out at 600.4.
On to `CN1CCN(Nc2ccc(S(=O)(=O)NC(=O)c3ccc(N4CCN(CC5=C(c6ccc(Cl)cc6)CC(C)(C)CC5)CC4)cc3Oc3cccc4[nH]cnc34)cc2[N+](=O)[O-])CC1` [Example 453, 2-(1H-benzimidazol-4-yloxy)-4-(4-{[2-(4-chlorophenyl)-4,4-dimethylcyclohex-1-en-1-yl]methyl}piperazin-1-yl)-N-({4-[(4-methylpiperazin-1-yl)amino]-3-nitrophenyl}sulfonyl)benzamide], for which the Ki on GST-Bcl-XL worked out at 3.63 nM. For the same compound, on GST-Bcl-2, the inhibition constant (Ki) was < 0.01 nM and the “Binding selectivity ratio” value was 363.0.
For `CN1CCC(CNc2ccc(S(=O)(=O)NC(=O)c3ccc(N4CCN(CC5=C(c6ccc(Cl)cc6)CC(C)(C)CC5)CC4)cc3Oc3cccc4[nH]cnc34)cc2[N+](=O)[O-])CC1` [Example 454, 2-(1H-benzimidazol-4-yloxy)-4-(4-{[2-(4-chlorophenyl)-4,4-dimethylcyclohex-1-en-1-yl]methyl}piperazin-1-yl)-N-[(4-{[(1-methylpiperidin-4-yl)methyl]amino}-3-nitrophenyl)sulfonyl]benzamide], the values for the inhibitory constant (Ki) at GST-Bcl-XL and at GST-Bcl-2 were 18.9 nM and 0.026 nM, respectively.
Take `COCCOCCN1CCO[C@H](CNc2ccc(S(=O)(=O)NC(=O)c3ccc(N4CCN(CC5=C(c6ccc(Cl)cc6)CC(C)(C)CC5)CC4)cc3Oc3cccc4[nH]cnc34)cc2[N+](=O)[O-])C1` [Example 455, 2-(1H-benzimidazol-4-yloxy)-4-(4-{[2-(4-chlorophenyl)-4,4-dimethylcyclohex-1-en-1-yl]methyl}piperazin-1-yl)-N-({4-[({(2R)-4-[2-(2-methoxyethoxy)ethyl]morpholin-2-yl}methyl)amino]-3-nitrophenyl}sulfonyl)benzamide]: the figures for the Ki on GST-Bcl-XL and on GST-Bcl-2 were 0.619 nM and 0.004 nM, respectively. Moreover, the “Binding selectivity ratio” value on GST-Bcl-2 is listed as 139.4.
The matching figures for `CC1(C)CCC(CN2CCN(c3ccc(C(=O)NS(=O)(=O)c4ccc(NCC5CCC(F)(F)CC5)c([N+](=O)[O-])c4)c(Oc4cccc5[nH]cnc45)c3)CC2)=C(c2ccc(Cl)cc2)C1` [Example 456, 2-(1H-benzimidazol-4-yloxy)-4-(4-{[2-(4-chlorophenyl)-4,4-dimethylcyclohex-1-en-1-yl]methyl}piperazin-1-yl)-N-[(4-{[(4,4-difluorocyclohexyl)methyl]amino}-3-nitrophenyl)sulfonyl]benzamide]: 0.54 nM, < 0.01 nM and 54.0.
`CC(=O)N1CCOC(CNc2ccc(S(=O)(=O)NC(=O)c3ccc(N4CCN(CC5=C(c6ccc(Cl)cc6)CC(C)(C)CC5)CC4)cc3Oc3cccc4[nH]cnc34)cc2[N+](=O)[O-])C1` (stereo not drawn) [Example 457, N-[(4-{[(4-acetylmorpholin-2-yl)methyl]amino}-3-nitrophenyl)sulfonyl]-2-(1H-benzimidazol-4-yloxy)-4-(4-{[2-(4-chlorophenyl)-4,4-dimethylcyclohex-1-en-1-yl]methyl}piperazin-1-yl)benzamide]: the Ki on GST-Bcl-XL turned out to be 331 nM. Besides, at GST-Bcl-2, the inhibition constant (Ki) was 0.045 nM and the “Binding selectivity ratio” value was found to be 7413.6.
For `CC1(C)CCC(CN2CCN(c3ccc(C(=O)NS(=O)(=O)c4ccc(NCC5CN(S(C)(=O)=O)CCO5)c([N+](=O)[O-])c4)c(Oc4cccc5[nH]cnc45)c3)CC2)=C(c2ccc(Cl)cc2)C1` (stereo not drawn) [Example 458, 2-(1H-benzimidazol-4-yloxy)-4-(4-{[2-(4-chlorophenyl)-4,4-dimethylcyclohex-1-en-1-yl]methyl}piperazin-1-yl)-N-{[4-({[4-(methylsulfonyl)morpholin-2-yl]methyl}amino)-3-nitrophenyl]sulfonyl}benzamide], the figures for the Ki on GST-Bcl-XL and on GST-Bcl-2 were 2.37 nM and < 0.01 nM, respectively. In addition, the “Binding selectivity ratio” value on GST-Bcl-2 was 237.2.
Turning to `CC1(C)CCC(CN2CCN(c3ccc(C(=O)NS(=O)(=O)c4cnc(OCC5(F)CCN(C(CF)CF)CC5)c(C(F)(F)F)c4)c(Oc4cccc5[nH]ncc45)c3)CC2)=C(c2ccc(Cl)cc2)C1` [Example 459, 4-(4-{[2-(4-chlorophenyl)-4,4-dimethylcyclohex-1-en-1-yl]methyl}piperazin-1-yl)-N-{[6-({4-fluoro-1-[2-fluoro-1-(fluoromethyl)ethyl]piperidin-4-yl}methoxy)-5-(trifluoromethyl)pyridin-3-yl]sulfonyl}-2-(1H-indazol-4-yloxy)benzamide], the Ki at GST-Bcl-XL is 5.42 nM; at GST-Bcl-2, < 0.01 nM. In addition, the “Binding selectivity ratio” value on GST-Bcl-2 is on record as 541.6.
Take `CC1(C)CCC(CN2CCN(c3ccc(C(=O)NS(=O)(=O)c4ccc(NCC5CCOCC5)c([N+](=O)[O-])c4)c(Oc4ccccc4)c3)CC2)=C(c2ccc(Cl)cc2)C1` [Example 460, 4-(4-{[2-(4-chlorophenyl)-4,4-dimethylcyclohex-1-en-1-yl]methyl}piperazin-1-yl)-N-({3-nitro-4-[(tetrahydro-2H-pyran-4-ylmethyl)amino]phenyl}sulfonyl)-2-phenoxybenzamide]: the Ki at GST-Bcl-XL is 29 nM; on GST-Bcl-2, 0.049 nM.
For the compound `CC1(C)CCC(CN2CCN(c3ccc(C(=O)NS(=O)(=O)c4cnc(OCCC5CCCO5)c(Cl)c4)c(Oc4cccc5[nH]ncc45)c3)CC2)=C(c2ccc(Cl)cc2)C1` (stereo not drawn) [Example 461, 4-(4-{[2-(4-chlorophenyl)-4,4-dimethylcyclohex-1-en-1-yl]methyl}piperazin-1-yl)-N-{[5-chloro-6-(2-tetrahydrofuran-2-ylethoxy)pyridin-3-yl]sulfonyl}-2-(1H-indazol-4-yloxy)benzamide], on GST-Bcl-XL, the Ki came to 3.65 nM. Besides, at GST-Bcl-2, the affinity corresponds to a Ki of 0.093 nM and the “Binding selectivity ratio” value came to 39.4.
With `CC1(C)CCC(CN2CCN(c3ccc(C(=O)NS(=O)(=O)c4ccc(NC[C@H]5CC[C@H](C#N)CC5)c([N+](=O)[O-])c4)c(Oc4cccc5[nH]cnc45)c3)CC2)=C(c2ccc(Cl)cc2)C1` [Example 462, Trans-2-(1H-benzimidazol-4-yloxy)-4-(4-{[2-(4-chlorophenyl)-4,4-dimethylcyclohex-1-en-1-yl]methyl}piperazin-1-yl)-N-[(4-{[(4-cyanocyclohexyl)methyl]amino}-3-nitrophenyl)sulfonyl]benzamide], the inhibition constant (Ki) was found to be 18.4 nM on GST-Bcl-XL and 0.026 nM at GST-Bcl-2.
In the case of `CC1(C)CCC(CN2CCN(c3ccc(C(=O)NS(=O)(=O)c4cnc(OCC5CCC(F)(F)CC5)c(Cl)c4)c(Oc4cccc5[nH]cnc45)c3)CC2)=C(c2ccc(Cl)cc2)C1` [Example 463, 2-(1H-benzimidazol-4-yloxy)-N-({5-chloro-6-[(4,4-difluorocyclohexyl)methoxy]pyridin-3-yl}sulfonyl)-4-(4-{[2-(4-chlorophenyl)-4,4-dimethylcyclohex-1-en-1-yl]methyl}piperazin-1-yl)benzamide], on GST-Bcl-XL, the affinity, expressed as Ki, was 43.9 nM. Further, on GST-Bcl-2, the affinity corresponds to a Ki of 0.007 nM and the “Binding selectivity ratio” value is reported as 6042.9.
In the case of `CC1(C)CCC(CN2CCN(c3ccc(C(=O)NS(=O)(=O)c4ccc(OCC5(F)CCOCC5)c(Cl)c4)c(Oc4cccc5[nH]ncc45)c3)CC2)=C(c2ccc(Cl)cc2)C1` [Example 464, N-({3-chloro-4-[(4-fluorotetrahydro-2H-pyran-4-yl)methoxy]phenyl}sulfonyl)-4-(4-{[2-(4-chlorophenyl)-4,4-dimethylcyclohex-1-en-1-yl]methyl}piperazin-1-yl)-2-(1H-indazol-4-yloxy)benzamide], the affinity on GST-Bcl-XL corresponds to a Ki of 521 nM. At GST-Bcl-2, the inhibition constant Ki is 0.081 nM and the “Binding selectivity ratio” value is reported as 6431.8.
The matching figures for `CC1(C)CC(c2ccc(Cl)cc2)=C(CN2CCN(c3ccc(C(=O)NS(=O)(=O)c4cnc(OCC5(F)CCOCC5)c(Cl)c4)c(Oc4cccc5[nH]ncc45)c3)CC2)CO1` [Example 465, N-({5-chloro-6-[(4-fluorotetrahydro-2H-pyran-4-yl)methoxy]pyridin-3-yl}sulfonyl)-4-(4-{[4-(4-chlorophenyl)-6,6-dimethyl-5,6-dihydro-2H-pyran-3-yl]methyl}piperazin-1-yl)-2-(1H-indazol-4-yloxy)benzamide]: 37.2 nM, 0.025 nM and 1472.4.

As usually defined, the Ki is a measure of affinity in units of concentration, obtained from inhibition or displacement. Higher therefore signals weaker binding.
